In this experiment the test system is seborrheic keratoses (SKs). Briefly: Formulary and performance observations on ingredients added to the SK treatment compositions. It counts as in vivo, human. Particulars: for performance on addition to the BWE composition: added antioxidant, with BWE; for improvement of the treatment of seborrheic keratosis: dietary antioxidant. From the text: A number of formulary and performance observations were made in the various aforementioned pilot and case studies as well as additional variants thereof not reported here. […] Additionally, the addition of keratolytic agents and emollients appeared to help keep the composition from drying and improved the penetration of the composition into the SK.

In the case of `CC(=O)N[C@@H](CS)C(=O)O` [N-acetyl cysteine], the “performance on addition to the BWE composition” value (“performance on addition” for short) was “no visible improvement” and the “improvement of the treatment of seborrheic keratosis” value (from here on “improvement”) is listed as “not found to improve”.

For `O=C(O)/C=C/c1ccc(O)c(O)c1` [caffeic acid], the “performance on addition” value is “no visible improvement” and the “improvement” value is on record as “not found to improve”.

Consider `CC(C)=CCC/C(C)=C/C=C/C(C)=C/C=C/C(C)=C/C=C/C=C(C)/C=C/C=C(C)/C=C/C=C(\C)CCC=C(C)C` [lycopene], for which the “performance on addition” value is “no visible improvement” and the “improvement” value is “not found to improve”.

For the compound `Oc1ccc(C=Cc2cc(O)cc(O)c2)cc1` [resveratrol], the “performance on addition” value is “no visible improvement” and the “improvement” value is listed as “not found to improve”.

The values above are taken from patent US11903990B2, “Compositions and methods for treating and removing seborrheic keratoses” (priority 2017, dated 2024).
